Measured values taken from patent US20220088195A1, “Prevention or mitigation of T-cell bispecific antibody-related adverse effects” (Hoffmann-La Roche Inc., priority 2020, published 2022).
“Also recorded” adds a separate entry of the source.

Tests used:
Type in all cases: cell-based, human
MKN45 NLR target cells = assay: Incucyte real time killing assay, PBMCs + MKN45 NLR target cells + CEA-TCB with escalating dasatinib
Experimental: FIG. 1. Real time killing of red fluorescent A375 cells loaded with RMF peptides by 10 nM HLA-A2 WT-1-TCB (A) and of red fluorescent MKN45 cells by 1 nM CEA-TCB (B) in the presence of different dasatinib concentrations ranging from 100 nM to 0 nM. (A) A375 NucLight Red (NLR) target cells were pulsed with RMF peptides (2 hours before killing assay) and co-cultured with HLA-A2 WT1-TCB, dasatinib (dasa) and PBMCs, effector to target ratio (E:T)=10:1 (E:T=50 000 PBMCs:5000 target cells). Killing was followed by Incucyte® (1 scan every 3 hours, zoom 10×, phase and red 400 ms acquisition time). % Killing was measured by normalizing total red area with values at t=0 hour and target cells+PBMCs+dasatinib (without TCB) control wells for each time point. Means of technical replicates+/−SEM for 1 donor. (B) MKN45 NLR target cells were co-cultured with CEA TCB, dasatinib and PBMCs, E:T=10:1 (E:T=50 000 PBMCs:5000 target cells). Killing was followed by Incucyte (1 scan every 3 hours, zoom 10×, phase and red 400 ms acquisition time). % Killing was measured by normalizing total red area with values at t=0 hour and target cells+PBMCs+dasatinib control wells for each time point. Means of technical replicates+/−SEM for 1 donor.
To assess the inhibitory effect of dasatinib on TCB-mediated target-cell killing, we conducted killing assays using peripheral blood mononuclear cells (PBMCs), NucLight Red (NLR) target-cells and respective TCB in media supplemented with escalating concentrations of dasatinib. The Incucyte® system (Essen Bioscience) was used to capture the loss of red fluorescent protein signal over time as a readout of target-cell killing.

CD4+ and CD8+ T cells = assay: CD19-TCB-induced T cell activation (CD69, CD25) in the SUDLH-8 assay; details: 100 nM dasatinib, 24 hrs; monohydrate
Experimental: FIG. 28. […] The expression of CD69 (A) and CD25 (B) on CD4+ T cells was measured by flow cytometry at 24 hrs in the assay described in FIG. 26. Mean of n=3 donors+SD. One way ANOVA, Friedman test, p-value: 0.1234 (ns), 0.0332 (*), 0.0021 (**), 0.0001 (***), <0.0001 (****).
FIG. 29. […] The expression of CD69 (A) and CD25 (B) on CD8+ T cells was measured by flow cytometry at 24 hrs in the assay described in FIG. 26. Mean of n=3 donors+SD. One way ANOVA, Friedman test, p-value: 0.1234 (ns), 0.0332 (*), 0.0021 (**), 0.0001 (***), <0.0001 (****).
The killing of CTV labelled SUDLH-8 cells was measured by flow cytometry using a Live/Dead Near Infra Red (NIR) dye. […] The expression of CD69 and CD25 were measured on CD4+ (FIG. 28) and CD8+(FIG. 29) T cells by flow cytometry as a readout for T cell activation. […] Lastly, the cytokine levels were analyzed in the supernatants of the assay by Luminex to evaluate the effect of dasatinib on CD19-TCB-induced cytokine release (FIGS. 30 and 31).

[1] = system: IFN-γ, TNF-α and IL-2 release; assay: Cytokine release in SKM-1 killing assay with HLA-A2 WT-1-TCB, dasatinib added after 24 hours (Luminex); details: 48 hours; 100 nM dasatinib added at 24 hours
Experimental: FIG. 3. In vitro killing assay set-up and timelines. PBMCs were co-cultured with SKM-1 target cells (E:T=10:1) and 10 nM HLA-A2 WT-1-TCB. Dasatinib (100 nM) was added after 24 hours of activation. PBMCs were labelled with CellTrace™ Violet (CTV) to allow T cell proliferation assessment.
FIG. 5. Cytokine release. Supernatants were collected from the assay of FIG. 3 at 24h and 48h, and cytokines (IFN-γ (A), TNF-α (B) and IL-2 (C)) measured using a multiplex kit (Luminex). Mean+/−SD of 3 donors.
To evaluate if dasatinib could act as a rapid and potent inhibitor of activated T cells, we first stimulated PBMCs on SKM-1 tumor cells with HLA-A2 WT-1-TCB for 24 hours. We then supplemented these activated effector cells with 100 nM dasatinib (FIG. 3).

[2] = system: IFN-γ, IL-2 and TNF-α release; assay: Cytokine levels in supernatants of the reversibility assay (Luminex)
Experimental: FIG. 18. […] Cytokines ((A) IFN-γ, (B) IL-2, (C) TNF-α) were measured with a multiplex cytokine kit (Luminex technology). 1 donor.
FIG. 20. Cytokine levels in the supernatants of the assay after first stimulation in the absence of 25 nM dasatinib and after second stimulation in the presence of 25 nM dasatinib, in the assay of FIG. 16 (“ON/OFF”). Cytokines ((A) IFN-γ, (B) IL-2, (C) TNF-α) were measured with a multiplex cytokine kit (Luminex technology). 1 donor.
FIG. 22. Cytokine release. Supernatants were collected after first and second stimulation in the assay of FIG. 16 and cytokines ((A) TNF-α, (B) IFN-γ, (C) IL-2) measured using a multiplex cytokine kit (Luminex).
We then verified if dasatinib's effect is reversible upon its removal. Therefore we set-up a killing assay with two and three stimulations in the presence and absence of dasatinib and followed the killing kinetics using an Incucyte® system (FIG. 16). After each stimulation, effector cells were washed and re-stimulated on fresh MKN45 NLR target cells with 1 nM CEA TCB in the presence and absence of dasatinib allowing to mimic OFF/ON switch and ON/OFF/ON switch.
Lastly, we evaluated if the effect of dasatinib was reversible on activated T cells. Consequently, we supplemented the media with 25 nM dasatinib upon the second stimulation with 1 nM CEA-TCB to prevent killing from activated T cells and then removed the dasatinib upon third stimulation with 1 nM CEA-TCB to verify if killing would be restored.
We were curious to see if low doses of dasatinib could prevent cytokine release while minimally affecting TCB-efficacy upon first stimulation. In killing assays as described in FIG. 16, the cytokine levels upon first treatment with 1 nM CEA-TCB in the presence of 6.25 nM and 12.5 nM dasatinib and upon second treatment with 1 nM CEA-TCB in the absence of dasatinib were measured in the supernatants.

**Q.** What does the source list for `Cc1nc(Nc2ncc(C(=O)Nc3c(C)cccc3Cl)s2)cc(N2CCN(CCO)CC2)n1` [dasatinib, N-(2-chloro-6-methylphenyl)-2-[[6-[4-(2-hydroxyethyl)-1-piperazinyl]-2-methyl-4-pyrimidinyl]amino]-5-thiazole carboxamide monohydrate]?
**A.** inhibition at 0.0125 µM (MKN45 NLR target cells; Homo sapiens, MKN-45, 12.5 nM dasatinib, 1 nM CEA-TCB, read-out: inhibition of target-cell killing): 69%; inhibition at 0.05 µM (MKN45 NLR target cells; Homo sapiens, MKN-45, 50 nM (24.4 ng/mL) dasatinib, 1 nM CEA-TCB, read-out: inhibition of target-cell killing): 88.2%; inhibition at 0.1 µM (MKN45 NLR target cells; Homo sapiens, MKN-45, 100 nM (48.8 ng/mL) dasatinib, 1 nM CEA-TCB, read-out: inhibition of target-cell killing): 90.4%; threshold in vitro concentration for preventing T cell mediated target-cell lysis (MKN45 NLR target cells; PBMCs stimulated with both TCB (CEA-TCB, HLA-A2 WT-1-TCB)): 12.5 nM; inhibition of killing (MKN45 NLR target cells; dasatinib concentrations below 12.5 nM, 1 nM CEA-TCB): only partially inhibited killing; CD19-TCB-induced CD4+ and CD8+ T cell activation (CD69, CD25) (CD4+ and CD8+ T cells): prevents CD19-TCB-induced CD4+ T cell activation; also recorded: prevents CD19-TCB-induced CD8+ T cell activation; also recorded: prevented CD4+ and CD8+ T cell activation; release of IFN-γ, TNF-α and IL-2 from activated T cells [1]: rapidly prevented the release of cytokines; release of IFN-γ, IL-2 and TNF-α during first stimulation ([2]; 6.25 nM and 12.5 nM dasatinib, 1 nM CEA-TCB): lowered the release; release of IFN-γ, IL-2 and TNF-α (ON/OFF) ([2]; 25 nM dasatinib upon second stimulation, 1 nM CEA-TCB): prevented the release; T-cell derived cytokine release (IFN-γ, IL-2, TNF-α) after first stimulation ([2]; 25 nM dasatinib, 1 nM CEA-TCB): full inhibition; levels of TNF-α, IL-2 and IFN-γ during second stimulation ([2]; dasatinib (6.25 nM, 12.5 nM) removed): remained low; release of IFN-γ, IL-2 and TNF-α after removal of dasatinib and restimulation ([2]; removal of 25 nM dasatinib, restimulation with 1 nM CEA-TCB): T cell functionality was restored upon dasatinib removal
